Data from patent US11517591B2, “Immunogenic peptides specific to BCMA and TACI antigens” (Dana-Farber Cancer Institute, Inc., priority 2017, dated 2022).

Test system: CD3+ T cells obtained from HLA-A2+ donors
Assay: Induction and phenotypic analysis of peptide-specific CTL by repeated peptide stimulation
Type: cell-based, human
Method: The peptide-specific CTL were generated from different HLA-A2^+ normal donors for the evaluation of the functional activities targeting MM cell lines. To generate the peptide-specific CTL, mature dendritic cells (mDC) generated from the same donor were resuspended in serum-free AIM-V media and pulsed with 50 μg/ml of the Heteroclitic #4 BCMA72-80 (YLMFLLRKI (SEQ ID NO: 13)) peptide or “Heteroclitic #3 TACI154-162 (YLSADQVAL (SEQ ID NO: 16))” peptide, overnight at 37° C., 5% CO2 in humidified air. The peptide-pulsed mDC were washed, counted, irradiated at 10 Gy and used to prime CD3^+ T cells at a 1:20 antigen-presenting cells/peptide-to-CD3^+ T cell ratio in AIM-V media supplemented with 10% human AB serum. […] To maintain the T cells ex vivo, IL-2 (50 U/ml) was added to the cultures two days after the second stimulation. Control T cell cultures were maintained under the same culture conditions in the presence of IL-2 (50 U/ml), but without peptide stimulation. Phenotype of the resulting CTL was evaluated one week after each cycle of peptide stimulation. […] The BCMA peptide-specific CTL cultures contained a higher percentage of CD8^+ T cells (˜80%) upon 4 cycle of peptide stimulation compared to non-peptide stimulated control T cells (˜20%) (FIGS. 8A-8C).
Antigen-specific CTL can be phenotypically identified as activated/memory T cells from naïve T cells by their expression of distinct cell surface antigens. The phenotype of the BCMA-CTL were examined as potential effector cells by analyzing the phenotype of naïve and memory cells. BCMA peptide-specific CTL were generated by repeated stimulation of HLA-A2^+ normal donor's CD3^+ T cells weekly with antigen-presenting cells pulsed with 50 μg/ml heteroclitic BCMA72-80 (YLMFLLRKI (SEQ ID NO: 13)). One week after each peptide stimulation, the resulting CTL were evaluated for their phenotypic profile by flow cytometry.
BCMA peptide-specific CTL (BCMA-CTL) were generated ex vivo by repeated stimulation of CD3^+ T cells obtained from HLA-A2^+ donors with peptide-pulsed antigen-presenting cells (APC). In brief, peptide (50 μg/ml)-pulsed APC were irradiated (10 Gy) and used to stimulate T cells at a 1 APC/peptide: 20 T cell ratio. The T cell cultures were restimulated every 7 days and maintained in AIM-V medium supplemented with 10% human AB serum (BioWhittaker) in the presence of IL-2 (50 units/ml).
Phenotypic characterization was performed on BCMA-CTL after staining with Live/Dead Aqua stain kit and fluorochrome conjugated anti-human mAbs and Tetramer-PE. Alternatively, the MM and breast cancer cell lines were stained with fluorochrome-conjugated BCMA or HLA-A2 mAb. After staining, the cells were washed, fixed in 2% paraformaldehyde, and analyzed by flow cytometry.
TACI peptide-specific CTL (TACI-CTL) were generated ex vivo by repeated stimulation of enriched CD3^+ T cells obtained from HLA-A2^+ donors with peptide-pulsed antigen-presenting cells (APC). In brief, peptide (50 μg/ml)-pulsed APC were irradiated (10 Gy) and used to stimulate T cells at a 1:20 APC/peptide-to-T cell ratio. The T cell cultures were restimulated every 7 days and maintained in AIM-V medium supplemented with 10% human AB serum (BioWhittaker) in the presence of IL-2 (50 units/ml).
Phenotypic characterization was performed on the MM target cells to conform TACI expression. Phenotypic characterization was performed on the TACI-CTL after staining with Live/Dead Aqua stain kit and fluorochrome conjugated anti-human mAbs. After staining, the cells were washed, fixed in 2% paraformaldehyde, and analyzed by flow cytometry.

[1] = Donor 1, after 2 cycles of peptide stimulation
[2] = Donor 1, after 4 cycles of stimulation
[3] = Donor 1, upon 4 cycles of stimulation
[4] = Donor 2, after 2 cycles of peptide stimulation
[5] = Donor 2, after 4 cycles of stimulation
[6] = Donor 2, upon 4 cycles of stimulation

YLMFLLRKI [heteroclitic BCMA72-80, heteroclitic BCMA peptide]
Naïve (CD45RO-CCR7+) within CD8+ T cells [1]: 37.4%
central memory (CM; CD45RO+CCR7+) within CD8+ T cells [1]: 32.1%
central memory (CM) within CD8+ T cells [2]: 44.2%
effector memory (EM; CD45RO+CCR7-) within CD8+ T cells [2]: 54.6%
frequency of memory CD3+CD8+ T cells [3]: 86%
frequency of naive CD3+CD8+ T cells [3]: 2%
Naïve (CD45RO-CCR7+) within CD8+ T cells [4]: 19.0%
central memory (CM) within CD8+ T cells [4]: 49.6%
central memory (CM) within CD8+ T cells [5]: 18.3%
effector memory (EM) within CD8+ T cells [5]: 77.6%
frequency of memory CD3+CD8+ T cells [6]: 92%
frequency of naive CD3+CD8+ T cells [6]: 2%
frequency of effector memory (CD45RO+/CCR7-) CD3+CD8+ T cells (after 4 cycles of peptide stimulation): increased
percentage of CD8+ T cells in peptide-specific CTL cultures (upon 4 cycle of peptide stimulation, 50 μg/ml): ~80%
